The test system of data set [1] is JNK3-dependent phosphorylation of APP at T668. As to the kind of experiment: JNK3 inhibition assay in rat primary neuron cultures (Western blot, anisomycin activated). Format: cell-based. As to conditions: even at a concentration as low as 10 nM; FIGS. 5A-5C. As for the experimental part:
Both hippocampal and cortical neurons were isolated from E18 rat embryos and cultured in NbActive 1 medium that contains B27 (Brainbits, LLC) plus penicillin/streptomycin (Life Technologies). At the 7th day in culture, cells were treated with different concentrations of inhibitors diluted in DMSO and 80 ng/ml Anisomycin for 30 min to activate the endogenous JNK3. At the end of incubation time, whole cell lysates were prepared in RIPA buffer containing 50 mM Tris (pH 8.0), 150 mM NaCl, 2 mM EDTA, 1% NP-40, 0.5% deoxycholate supplemented with 10 mM Na pyrophosphate, 1 mM sodium orthovanadate, 25 mM NaF, 10 μg/ml leupeptin, 10 μg/ml aprotinin, 1 mM β-glycerophosphate, and 2 mM PMSF. The lysates were subjected to Western blotting to detect whether inhibitors block JNK3-dependent phosphorylation of APP at T668 and c-jun at S73. Phospho-APP^T668, phosphor-c-jun^S73, APP, and c-jun antibodies were from Cell Signaling Technology.
In general terms: Immunoblotting shows a protein as a band on a membrane.

Data set [2] concerns the target T1, panel of 374 wild-type kinases (Homo sapiens, UniProt Q86SG6).
T1 construct: purchased Reaction Biology Corporation
As to the kind of experiment: biochemical. As to conditions: read-out: % Enzyme Activity (relative to DMSO controls), NEK8; 5 uM.

Data set [3] addresses JNK2 (Homo sapiens, UniProt P45984). As to the kind of experiment: JNK2 homogeneous time-resolved fluorescence enzyme inhibition assay. Format: biochemical. As to conditions: mean of ≥2 experiments; read-out: Biochemical inhibition IC50 JNK2. On the procedure: (§1) A 10-point titration of all compounds was carried out in 3-fold dilutions from 10 μM to 0.5 nM.
Data set [4] addresses p38α (Homo sapiens, UniProt Q16539). As to the kind of experiment: p38 enzyme inhibition assay. As to conditions: mean of ≥2 experiments; read-out: Biochemical inhibition IC50 p38α.
A short description of data set [5]: Pharmacokinetics / brain exposure in mice. Format: in vivo, C57Bl/6J mice. As for the experimental part:
Pharmacokinetics studies were conducted in C57Bl/6J mice. The compound was formulated in a generic formulation at 1 mg/mL (e.g. 10:40:4:46, DMSO:PEG 400: tween 80: PBS, v:v:v:v) or other specified formulations and dosed at 1 mg/kg intravenous into the femoral vein or 1-10 mg/kg by oral gavage, or […]. Blood was obtained at t=5 min, 15 min, 30 min, 1 hr, 2 hr, 4 hr, 6 hr, and 8 hr. Blood was collected by heart puncture into EDTA containing tubes and plasma was generated by standard centrifugation methods. Brains were collected following perfusion with ice-cold saline, and snap frozen in liquid N2. Both plasma and brains were stored at −80° C. until processing. All procedures and handling were according to standard operating procedures approved by […] at Scripps Florida and/or Ohio State University. In order to assess in vivo pharmacokinetic parameters an LC-MS/MS bioanalytical method was developed where 25 TI of plasma was treated with 125 TI of acetonitrile containing an internal standard in a Millipore Multscreen Slovinter 0.45 micron low binding PTFE hydrophilic filter plate (#MSRLN0450) and allowed to shake at room temperature for five minute. The plate was then centrifuged for 5 minutes at 4000 rpm in a tabletop centrifuge and the filtrate was collected in a polypropylene capture plate. The filtrate (10 TI) is injected using an Agilent 1200 HPLC equipped with a Thermo Betasil C18 HPLC column 5 T (50×2.1 mm) #70105-052130. Mobile Phase A was water with 0.1% formic acid. Mobile phase B was acetonitrile with 0.1% formic acid. […] An API Sciex 4000 equipped with a turbo ion spray source was used for all analytical measurement. MRM methods were developed in position ion mode. Peak areas of the analyte ion were measured against the peak areas of the internal standard. Data was fit using WinNonLin using an IV bolus model.

For data set [6], the target named is JNK3α1 (Homo sapiens, UniProt P53779). Type of data set: biochemical. As to conditions: mean of ≥2 experiments; read-out: Biochemical inhibition IC50 JNK3. On the procedure:
as §1

In data set [7] the target is T2, panel of 374 wild-type kinases (Homo sapiens, UniProt P53779).
T2 construct: purchased Reaction Biology Corporation
T2 sequence (P53779 whole entry): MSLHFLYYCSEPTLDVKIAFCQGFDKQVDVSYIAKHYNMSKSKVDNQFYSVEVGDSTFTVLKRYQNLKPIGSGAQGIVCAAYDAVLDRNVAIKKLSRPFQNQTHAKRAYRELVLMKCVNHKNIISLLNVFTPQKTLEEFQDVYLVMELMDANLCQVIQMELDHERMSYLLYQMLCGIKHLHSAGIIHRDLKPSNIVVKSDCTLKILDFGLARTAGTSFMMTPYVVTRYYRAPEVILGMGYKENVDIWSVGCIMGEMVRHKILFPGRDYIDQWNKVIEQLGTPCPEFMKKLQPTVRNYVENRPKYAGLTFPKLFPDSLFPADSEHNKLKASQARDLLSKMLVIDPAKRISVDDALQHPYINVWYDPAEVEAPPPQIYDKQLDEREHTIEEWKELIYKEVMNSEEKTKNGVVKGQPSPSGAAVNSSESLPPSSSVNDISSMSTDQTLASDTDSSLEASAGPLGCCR
As to the kind of experiment: biochemical. As to conditions: read-out: % Enzyme Activity (relative to DMSO controls), JNK3; 10 uM.

Sequence of JNK2 (P45984 whole entry): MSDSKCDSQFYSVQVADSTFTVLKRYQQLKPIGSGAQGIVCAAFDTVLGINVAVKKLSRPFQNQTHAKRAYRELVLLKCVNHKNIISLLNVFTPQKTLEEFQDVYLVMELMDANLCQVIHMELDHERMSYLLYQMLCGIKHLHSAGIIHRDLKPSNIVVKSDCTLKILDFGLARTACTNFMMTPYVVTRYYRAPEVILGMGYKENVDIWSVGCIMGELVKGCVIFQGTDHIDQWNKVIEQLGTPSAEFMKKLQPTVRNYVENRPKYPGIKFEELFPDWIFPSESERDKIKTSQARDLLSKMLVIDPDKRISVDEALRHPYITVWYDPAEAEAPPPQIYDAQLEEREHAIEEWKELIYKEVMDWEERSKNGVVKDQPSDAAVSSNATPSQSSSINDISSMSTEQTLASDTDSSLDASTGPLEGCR
Sequence of p38α (Q16539 whole entry): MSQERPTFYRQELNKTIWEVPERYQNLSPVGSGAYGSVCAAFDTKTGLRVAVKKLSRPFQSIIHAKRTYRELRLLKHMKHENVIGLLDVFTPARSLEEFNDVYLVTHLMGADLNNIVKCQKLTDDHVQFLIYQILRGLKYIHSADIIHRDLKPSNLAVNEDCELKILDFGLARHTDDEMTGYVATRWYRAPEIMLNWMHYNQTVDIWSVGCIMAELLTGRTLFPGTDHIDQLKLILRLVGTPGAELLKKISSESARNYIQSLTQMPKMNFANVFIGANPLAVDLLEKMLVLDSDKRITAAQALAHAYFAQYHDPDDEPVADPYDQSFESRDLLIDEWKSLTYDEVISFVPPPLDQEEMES
Sequence of JNK3α1 (P53779 1-422 isoform P53779-2): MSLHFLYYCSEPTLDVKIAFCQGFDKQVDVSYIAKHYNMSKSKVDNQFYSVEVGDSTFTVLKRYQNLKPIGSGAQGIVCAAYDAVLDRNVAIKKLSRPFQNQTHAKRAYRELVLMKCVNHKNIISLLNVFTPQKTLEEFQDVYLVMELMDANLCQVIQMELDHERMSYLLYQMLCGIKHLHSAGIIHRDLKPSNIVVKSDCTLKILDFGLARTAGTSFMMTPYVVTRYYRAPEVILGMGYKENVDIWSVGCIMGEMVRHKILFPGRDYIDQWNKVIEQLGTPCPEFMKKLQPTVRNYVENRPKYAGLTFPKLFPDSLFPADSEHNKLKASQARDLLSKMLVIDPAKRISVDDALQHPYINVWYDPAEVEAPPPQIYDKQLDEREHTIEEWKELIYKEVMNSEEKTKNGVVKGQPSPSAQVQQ
T1 sequence (Q86SG6 whole entry): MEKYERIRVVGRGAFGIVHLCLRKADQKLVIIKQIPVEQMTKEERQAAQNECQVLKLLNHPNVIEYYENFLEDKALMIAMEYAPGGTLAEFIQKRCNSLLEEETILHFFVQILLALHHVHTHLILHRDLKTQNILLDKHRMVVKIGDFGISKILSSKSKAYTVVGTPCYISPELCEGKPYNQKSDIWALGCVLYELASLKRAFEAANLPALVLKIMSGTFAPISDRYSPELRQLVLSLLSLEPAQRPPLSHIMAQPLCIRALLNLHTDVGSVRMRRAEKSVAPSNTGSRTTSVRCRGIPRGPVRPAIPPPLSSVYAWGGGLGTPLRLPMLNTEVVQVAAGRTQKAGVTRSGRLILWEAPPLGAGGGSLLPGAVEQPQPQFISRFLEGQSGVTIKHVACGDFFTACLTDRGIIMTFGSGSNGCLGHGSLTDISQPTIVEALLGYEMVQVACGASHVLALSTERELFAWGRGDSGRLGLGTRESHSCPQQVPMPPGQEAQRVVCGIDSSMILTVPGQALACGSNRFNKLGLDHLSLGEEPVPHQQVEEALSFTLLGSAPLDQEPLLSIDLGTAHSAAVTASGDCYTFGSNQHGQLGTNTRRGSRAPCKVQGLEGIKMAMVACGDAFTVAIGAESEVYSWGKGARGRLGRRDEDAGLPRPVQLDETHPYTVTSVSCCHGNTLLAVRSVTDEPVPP

`O=C(Nc1cnn(-c2csc(C(=O)NC3COC3)c2)c1)Nc1ccccc1Cl` [Compound 17, 4-(4-(3-(2-chlorophenyl)ureido)-1H-pyrazol-1-yl)-N-(oxetan-3-yl)thiophene-2-carboxamide]: the “inhibition of phosphorylation of residue T668 of APP” value in data set [1] is “significantly inhibited”. Moreover, the remaining activity at 5 µM in data set [2] was found to be 107%. Besides, in data set [3], the IC50 came out at 1360 nM. Also, the concentration for half-maximal inhibition (IC50) in data set [4] is above 20000 nM. Moreover, in data set [5] (po dosing), the brain penetration capability result is listed as “brain penetrant” and the oral bioavailability result is “has oral bioavailability”. Also, in data set [5] (po, 10 mg/kg), the “Brain Concentration” value is 1080 nM and the “Plasma Concentration” value turned out to be 960 nM. In addition, in data set [6], the half-maximal inhibitory concentration (IC50) is 35 nM.

As for `Cc1sc(C(=O)NC2COC2)cc1-n1cc(NC(=O)Nc2c(F)cccc2Cl)cn1` [Compound 27, 4-(4-(3-(2-chloro-6-fluorophenyl)ureido)-1H-pyrazol-1-yl)-5-methyl-N-(oxetan-3-yl)thiophene-2-carboxamide], the remaining activity at 10 µM in data set [7] amounted to 10.5%.

A word on the IC50: it is the concentration that inhibits the measured activity by half.

The values are drawn from patent US20240246942A1, “KINASE INHIBITORS FOR THE TREATMENT OF NEURODEGENERATIVE DISEASES” (priority 2020, published 2024).
